# Experiments:
# [1] = molecular target: JAK1 (Homo sapiens (Human), UniProt P23458); test: Biochemical JAK1 kinase assay (LanthaScreen)
# How it was run: (§1)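 GST-JAK + GFP-STAT1 peptide, HEPES pH 7.5/MgCl2/EGTA/Brij-35 buffer; cpd preincubation 1 h RT; ATP start, 1 h RT; stop with 10 mM EDTA + 2 nM Tb-anti-pSTAT1; TR-FRET 520/495. 4-parameter IC50 → pKi (Cheng-Prusoff).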
# [2] = molecular target: JAK3 (Homo sapiens (Human), UniProt P52333); test: Biochemical JAK3 kinase assay (LanthaScreen); conditions: for JAK3 (pKi)-JAK1 (pKi): selectivity JAK3 over JAK1, difference of pKi
# Chain of JAK3 (P52333 whole entry): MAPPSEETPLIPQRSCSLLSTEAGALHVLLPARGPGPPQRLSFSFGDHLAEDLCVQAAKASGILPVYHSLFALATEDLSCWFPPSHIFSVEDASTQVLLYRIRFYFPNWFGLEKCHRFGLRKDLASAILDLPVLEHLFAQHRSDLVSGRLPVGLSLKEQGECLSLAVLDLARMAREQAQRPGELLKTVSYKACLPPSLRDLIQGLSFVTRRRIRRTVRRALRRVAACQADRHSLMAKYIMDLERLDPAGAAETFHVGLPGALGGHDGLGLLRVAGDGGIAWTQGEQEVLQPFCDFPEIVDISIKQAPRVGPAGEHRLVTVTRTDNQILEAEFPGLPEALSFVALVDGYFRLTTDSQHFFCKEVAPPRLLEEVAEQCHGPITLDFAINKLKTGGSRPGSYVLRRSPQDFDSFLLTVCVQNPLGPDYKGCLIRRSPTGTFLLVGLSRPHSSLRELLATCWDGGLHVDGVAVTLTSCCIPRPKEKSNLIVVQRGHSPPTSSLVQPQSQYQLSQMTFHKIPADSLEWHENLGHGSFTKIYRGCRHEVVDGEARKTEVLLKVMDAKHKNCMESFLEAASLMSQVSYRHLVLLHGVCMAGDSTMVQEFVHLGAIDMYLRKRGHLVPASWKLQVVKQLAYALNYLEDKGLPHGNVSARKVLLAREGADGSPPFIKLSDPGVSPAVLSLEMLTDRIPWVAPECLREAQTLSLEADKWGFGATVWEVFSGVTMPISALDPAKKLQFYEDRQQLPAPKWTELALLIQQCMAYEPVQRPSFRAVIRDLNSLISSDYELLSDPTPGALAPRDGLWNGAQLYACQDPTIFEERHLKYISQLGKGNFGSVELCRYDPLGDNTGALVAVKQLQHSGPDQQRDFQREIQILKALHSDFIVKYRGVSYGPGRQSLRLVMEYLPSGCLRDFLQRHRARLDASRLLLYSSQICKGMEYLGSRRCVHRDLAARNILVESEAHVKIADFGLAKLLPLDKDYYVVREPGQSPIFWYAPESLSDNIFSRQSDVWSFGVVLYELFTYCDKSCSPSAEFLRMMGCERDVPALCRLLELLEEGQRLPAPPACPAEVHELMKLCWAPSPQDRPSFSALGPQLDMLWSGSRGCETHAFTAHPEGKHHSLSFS
# How it was run: as §1
# [3] = test system: IL-2 stimulated STAT5 phosphorylation in Tall-1 human T cell line (JAK3); test: Cellular JAK3 potency assay: inhibition of IL-2 stimulated pSTAT5 in Tall-1 T cells; assay type: cell-based; conditions: IL-2 stimulated pSTAT5, Tall-1 T cells
# How it was run: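 Tall-1 cells, 45,000 per well, preincubated 1 hour with compound at 37 °C, then stimulated 30 minutes with IL-2 at 300 ng/ml final. pSTAT5 (Tyr694/699) in lysates quantified by AlphaLISA SureFire Ultra. pIC50 derived from inhibition curves, given as mean with SD.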
# [4] = molecular target: JAK2 (Homo sapiens (Human), UniProt O60674); test: Biochemical JAK2 kinase assay (LanthaScreen)
# Chain of JAK2 (O60674 whole entry): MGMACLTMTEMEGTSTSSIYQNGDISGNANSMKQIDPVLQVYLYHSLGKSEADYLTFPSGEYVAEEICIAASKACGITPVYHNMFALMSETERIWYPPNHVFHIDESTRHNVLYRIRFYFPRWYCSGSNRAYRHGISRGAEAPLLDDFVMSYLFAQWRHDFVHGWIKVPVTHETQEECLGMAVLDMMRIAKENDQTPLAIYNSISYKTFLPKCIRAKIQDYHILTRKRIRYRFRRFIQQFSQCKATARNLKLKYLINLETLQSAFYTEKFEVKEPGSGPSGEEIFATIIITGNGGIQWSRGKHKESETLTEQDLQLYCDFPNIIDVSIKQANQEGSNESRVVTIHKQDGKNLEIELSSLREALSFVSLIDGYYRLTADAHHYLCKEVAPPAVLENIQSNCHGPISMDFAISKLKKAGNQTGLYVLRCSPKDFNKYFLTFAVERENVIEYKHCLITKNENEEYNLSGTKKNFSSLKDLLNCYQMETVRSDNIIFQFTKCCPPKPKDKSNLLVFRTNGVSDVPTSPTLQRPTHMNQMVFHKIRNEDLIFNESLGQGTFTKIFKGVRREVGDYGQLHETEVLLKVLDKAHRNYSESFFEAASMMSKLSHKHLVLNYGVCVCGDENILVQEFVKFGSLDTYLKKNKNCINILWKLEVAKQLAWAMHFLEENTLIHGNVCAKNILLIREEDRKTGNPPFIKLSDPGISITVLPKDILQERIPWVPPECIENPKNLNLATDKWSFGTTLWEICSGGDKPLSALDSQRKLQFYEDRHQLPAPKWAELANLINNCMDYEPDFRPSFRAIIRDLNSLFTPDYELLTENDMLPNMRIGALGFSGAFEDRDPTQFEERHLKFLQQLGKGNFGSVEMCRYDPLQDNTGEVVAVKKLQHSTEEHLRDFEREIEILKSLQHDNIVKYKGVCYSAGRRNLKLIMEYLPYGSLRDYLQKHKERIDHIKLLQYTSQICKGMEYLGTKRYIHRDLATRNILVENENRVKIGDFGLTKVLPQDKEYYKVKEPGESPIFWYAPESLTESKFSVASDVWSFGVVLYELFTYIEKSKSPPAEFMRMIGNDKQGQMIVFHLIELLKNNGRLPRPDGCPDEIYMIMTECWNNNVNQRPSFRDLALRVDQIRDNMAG
# Procedure: (§2) Assay 1: Biochemical JAK and Tyk2 Kinase Assays
# (§3) A panel of four LanthaScreen JAK biochemical assays (JAK1, 2, 3 and Tyk2) were carried in a common kinase reaction buffer (50 mM HEPES, pH 7.5, 0.01% Brij-35, 10 mM MgCl2, and 1 mM EGTA). Recombinant GST-tagged JAK enzymes and a GFP-tagged STAT1 peptide substrate were obtained from Life Technologies.
# (§4) Serially or discretely diluted compounds were pre-incubated with each of the four JAK enzymes and the substrate in white 384-well microplates (Corning) at ambient temperature for 1 h. ATP was subsequently added to initiate the kinase reactions in 10 μL total volume, with 1% DMSO. […] Kinase reactions were allowed to proceed for 1 hour at ambient temperature before a 10 μL preparation of EDTA (10 mM final concentration) and Tb-anti-pSTAT1 (pTyr701) antibody (Life Technologies, 2 nM final concentration) in TR-FRET dilution buffer (Life Technologies) was added. The plates were allowed to incubate at ambient temperature for 1 h before being read on the EnVision reader (Perkin Elmer). Emission ratio signals (520 nm/495 nm) were recorded and utilized to calculate the percent inhibition values based on DMSO and background controls.
# (§5) For dose-response analysis, percent inhibition data were plotted vs. compound concentrations, and IC50 values were determined from a 4-parameter robust fit model with the Prism software (GraphPad Software). Results were expressed as pIC50 (negative logarithm of IC50) and subsequently converted to pKi (negative logarithm of dissociation constant, Ki) using the Cheng-Prusoff equation.
# [5] = molecular target: Tyk2 (Homo sapiens (Human), UniProt P29597); test: Biochemical Tyk2 kinase assay (LanthaScreen)
# Chain of Tyk2 (P29597 whole entry): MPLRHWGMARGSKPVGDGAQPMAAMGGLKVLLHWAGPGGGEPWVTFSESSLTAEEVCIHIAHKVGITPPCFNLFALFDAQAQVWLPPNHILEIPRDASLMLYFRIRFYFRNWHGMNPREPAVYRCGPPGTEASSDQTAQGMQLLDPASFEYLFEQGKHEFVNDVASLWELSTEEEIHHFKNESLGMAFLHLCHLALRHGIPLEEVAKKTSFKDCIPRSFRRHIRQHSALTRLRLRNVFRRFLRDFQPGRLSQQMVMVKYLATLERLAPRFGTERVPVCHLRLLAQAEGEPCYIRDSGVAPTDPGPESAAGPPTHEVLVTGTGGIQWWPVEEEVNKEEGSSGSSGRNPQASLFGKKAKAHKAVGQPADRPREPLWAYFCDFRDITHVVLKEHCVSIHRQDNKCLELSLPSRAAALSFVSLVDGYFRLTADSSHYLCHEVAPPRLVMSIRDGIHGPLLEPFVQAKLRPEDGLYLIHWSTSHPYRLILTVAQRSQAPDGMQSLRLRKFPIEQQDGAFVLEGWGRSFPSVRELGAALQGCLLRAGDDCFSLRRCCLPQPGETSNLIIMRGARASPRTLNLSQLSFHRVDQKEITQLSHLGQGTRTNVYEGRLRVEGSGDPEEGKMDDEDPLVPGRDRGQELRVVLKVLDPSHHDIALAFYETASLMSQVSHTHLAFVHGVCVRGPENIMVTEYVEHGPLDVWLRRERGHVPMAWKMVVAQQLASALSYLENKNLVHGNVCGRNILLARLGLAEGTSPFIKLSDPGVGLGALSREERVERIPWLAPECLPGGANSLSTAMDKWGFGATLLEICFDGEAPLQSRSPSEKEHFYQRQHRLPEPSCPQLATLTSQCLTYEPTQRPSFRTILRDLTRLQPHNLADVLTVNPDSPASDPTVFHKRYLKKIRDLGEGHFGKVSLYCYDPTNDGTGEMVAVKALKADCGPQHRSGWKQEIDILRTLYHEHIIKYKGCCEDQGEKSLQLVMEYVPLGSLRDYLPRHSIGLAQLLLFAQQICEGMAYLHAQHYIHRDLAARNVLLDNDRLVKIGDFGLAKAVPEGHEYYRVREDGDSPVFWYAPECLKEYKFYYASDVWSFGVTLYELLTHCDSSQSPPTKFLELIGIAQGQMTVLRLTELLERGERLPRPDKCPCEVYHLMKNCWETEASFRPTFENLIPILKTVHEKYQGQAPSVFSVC
# Procedure: as §2, §3, §4, §5
# Chain of JAK1 (P23458 whole entry): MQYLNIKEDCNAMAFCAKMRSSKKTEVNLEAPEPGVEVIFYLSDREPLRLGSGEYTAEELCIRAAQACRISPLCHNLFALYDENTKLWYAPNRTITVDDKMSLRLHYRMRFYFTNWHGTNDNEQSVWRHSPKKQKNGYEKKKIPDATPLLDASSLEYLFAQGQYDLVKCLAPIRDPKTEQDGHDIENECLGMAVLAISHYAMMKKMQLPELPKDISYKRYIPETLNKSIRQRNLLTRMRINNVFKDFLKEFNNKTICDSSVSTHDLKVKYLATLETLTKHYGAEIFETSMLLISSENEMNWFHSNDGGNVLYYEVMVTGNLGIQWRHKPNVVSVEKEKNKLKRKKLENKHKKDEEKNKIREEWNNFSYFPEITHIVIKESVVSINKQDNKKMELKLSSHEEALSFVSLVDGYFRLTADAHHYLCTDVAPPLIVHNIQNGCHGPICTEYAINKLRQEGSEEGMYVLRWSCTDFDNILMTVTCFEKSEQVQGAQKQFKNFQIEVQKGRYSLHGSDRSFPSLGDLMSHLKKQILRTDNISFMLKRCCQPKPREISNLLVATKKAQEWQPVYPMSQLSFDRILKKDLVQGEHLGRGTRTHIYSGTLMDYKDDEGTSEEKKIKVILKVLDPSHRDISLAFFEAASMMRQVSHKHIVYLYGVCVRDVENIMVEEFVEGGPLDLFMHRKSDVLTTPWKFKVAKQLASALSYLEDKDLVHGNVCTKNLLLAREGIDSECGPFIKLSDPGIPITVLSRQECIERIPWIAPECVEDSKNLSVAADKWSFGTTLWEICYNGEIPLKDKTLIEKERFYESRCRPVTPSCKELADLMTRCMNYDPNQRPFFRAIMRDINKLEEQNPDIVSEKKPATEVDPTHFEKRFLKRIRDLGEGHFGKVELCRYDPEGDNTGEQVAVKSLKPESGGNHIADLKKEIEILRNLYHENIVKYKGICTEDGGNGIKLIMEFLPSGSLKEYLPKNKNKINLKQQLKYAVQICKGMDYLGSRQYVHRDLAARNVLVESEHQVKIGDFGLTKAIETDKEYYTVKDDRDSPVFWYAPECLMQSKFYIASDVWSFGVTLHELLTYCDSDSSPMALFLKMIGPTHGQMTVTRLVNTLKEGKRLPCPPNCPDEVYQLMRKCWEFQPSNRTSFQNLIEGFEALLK
smiles,measurement,setting,value
C=CC(=O)N1CC(C(C)(C)Cn2c(=O)ccc3cnc(Nc4ccc(N5CCN(C(C)=O)CC5)cc4)nc32)C1 [Example 184],JAK 1 (pKi),[1],E (E represents a pKi value of 7 or below (Ki of 100 nM or above))
same,JAK 3 (pKi),[2],A (A represents a pKi value≥10 (Ki≤0.1 nM))
same,JAK3 (pKi)-JAK1 (pKi),[2],A (A represents a value of 3 or above)
same,Tall-1 (pIC50),[3],B (B represents a pC50 value between 6.7 (included) and 7.5 (IC50 between 200 nM and 32 nM))
same,JAK 2 (pKi),[4],E (E represents a pKi value of 7 or below (Ki of 100 nM or above))
same,Tyk 2 (pKi),[5],E (E represents a pKi value of 7 or below (Ki of 100 nM or above))
C=CC(=O)N1CCN(CCn2c(=O)ccc3cnc(Nc4ccc(N5CCN(C(C)=O)CC5)c(Cl)c4)nc32)CC1 [Example 153],JAK 1 (pKi),[1],E (E represents a pKi value of 7 or below (Ki of 100 nM or above))
same,JAK 3 (pKi),[2],B (B represents pKi value between 9 and 10 (Ki between 1 nM and 0.1 nM))
same,JAK3 (pKi)-JAK1 (pKi),[2],A (A represents a value of 3 or above)
same,Tall-1 (pIC50),[3],C (C represents a pIC50 value between 6 and 6.7 (IC50 between 1 μM and 200 nM))
same,JAK 2 (pKi),[4],E (E represents a pKi value of 7 or below (Ki of 100 nM or above))
same,Tyk 2 (pKi),[5],E (E represents a pKi value of 7 or below (Ki of 100 nM or above))
C=CC(=O)N1CC(CCn2c(=O)ccc3cnc(Nc4ccc(N5CCN(C)C[C@@H]5C)cc4)nc32)C1 [Example 163],JAK 1 (pKi),[1],E (E represents a pKi value of 7 or below (Ki of 100 nM or above))
same,JAK 3 (pKi),[2],B (B represents pKi value between 9 and 10 (Ki between 1 nM and 0.1 nM))
same,JAK3 (pKi)-JAK1 (pKi),[2],A (A represents a value of 3 or above)
same,Tall-1 (pIC50),[3],A (A represents a pIC50 value≥7.5 (IC50≤32 nM))
same,JAK 2 (pKi),[4],E (E represents a pKi value of 7 or below (Ki of 100 nM or above))
same,Tyk 2 (pKi),[5],E (E represents a pKi value of 7 or below (Ki of 100 nM or above))
C=CC(=O)N1CC(CCn2c(=O)ccc3cnc(Nc4ccc(N5CCN(C(=O)C(C)(C)C)CC5)cc4)nc32)C1 [Example 104],JAK 1 (pKi),[1],E (E represents a pKi value of 7 or below (Ki of 100 nM or above))
same,JAK 3 (pKi),[2],A (A represents a pKi value≥10 (Ki≤0.1 nM))
same,JAK3 (pKi)-JAK1 (pKi),[2],A (A represents a value of 3 or above)
same,Tall-1 (pIC50),[3],A (A represents a pIC50 value≥7.5 (IC50≤32 nM))
same,JAK 2 (pKi),[4],E (E represents a pKi value of 7 or below (Ki of 100 nM or above))
same,Tyk 2 (pKi),[5],E (E represents a pKi value of 7 or below (Ki of 100 nM or above))
C=CC(=O)N1CC(CCn2c(=O)ccc3cnc(Nc4ccc(N5CCN(CCC6CCCCC6)CC5)cc4)nc32)C1 [Example 116],JAK 1 (pKi),[1],E (E represents a pKi value of 7 or below (Ki of 100 nM or above))
same,JAK 3 (pKi),[2],B (B represents pKi value between 9 and 10 (Ki between 1 nM and 0.1 nM))
same,JAK3 (pKi)-JAK1 (pKi),[2],B (B represents a value of 2.5 to 3)
same,Tall-1 (pIC50),[3],B (B represents a pC50 value between 6.7 (included) and 7.5 (IC50 between 200 nM and 32 nM))
same,JAK 2 (pKi),[4],E (E represents a pKi value of 7 or below (Ki of 100 nM or above))
same,Tyk 2 (pKi),[5],E (E represents a pKi value of 7 or below (Ki of 100 nM or above))
C=CC(=O)N1CCN(CCn2c(=O)ccc3cnc(Nc4cnn(C(C)(C)COC)c4)nc32)[C@@H](C)C1 [Example 233],JAK 1 (pKi),[1],E (E represents a pKi value of 7 or below (Ki of 100 nM or above))
same,JAK 3 (pKi),[2],B (B represents pKi value between 9 and 10 (Ki between 1 nM and 0.1 nM))
same,JAK3 (pKi)-JAK1 (pKi),[2],A (A represents a value of 3 or above)
same,Tall-1 (pIC50),[3],B (B represents a pC50 value between 6.7 (included) and 7.5 (IC50 between 200 nM and 32 nM))
same,JAK 2 (pKi),[4],E (E represents a pKi value of 7 or below (Ki of 100 nM or above))
same,Tyk 2 (pKi),[5],E (E represents a pKi value of 7 or below (Ki of 100 nM or above))

# From patent publication US11697648B2, “Fused pyrimidine pyridinone compounds as JAK inhibitors” (THERAVANCE BIOPHARMA R&D IP, LLC, priority 2019, dated 2023)
